Here are results for 6 molecules from patent publication US20260306644A1, “ANTIBODY RECRUITING MOLECULES FOR THE TREATMENT OF CORONAVIRUS DISEASE-19” (priority 2023, published 2026).

The assay concerns the target T1, SARS-CoV-2 Spike A (wild-type) (Severe acute respiratory syndrome coronavirus 2, UniProt P0DTC2).
T1 construct: purchased Meso Scale Diagnostics, LLC V-PLEX SARS-CoV-2 Panel 13 (ACE2) Kit / Panel 23 (ACE2) Kit
Description: MSD ACE2 competition assay (inhibition of Spike binding with ACE2, ECL), A (wild-type).

The mark [1] stands for this setting: IC50 Wild Type, Wild Type Spike.

One may read the IC50 as the point on the concentration scale where inhibition reaches its midpoint.

Like-named read-outs stand apart in the source and are kept apart here. Positions of bridges follow the written chain, without caps; N, C: chain ends. Non-standard residues stand in square brackets, D forms with d. Residues, ends and D or L forms follow the SMILES beside them. ξ: configuration not given here. ξIle = CC[C@H](C)C(N)C(=O)O

The molecule `CC[C@H](C)[C@H](NC(=O)[C@H](CC(C)C)NC(=O)[C@H](CC(=O)O)NC(=O)[C@H](CO)NC(=O)[C@@H](NC(=O)[C@H](CCCNC(=N)N)NC(=O)[C@H](CCSC)NC(=O)[C@H](CO)NC(=O)[C@H](C)NC(=O)[C@H](CCC(=O)O)NC(=O)[C@H](C)NC(=O)[C@H](Cc1c[nH]cn1)NC(=O)CNC(=O)[C@H](CC(C)C)NC(=O)[C@H](CCC(=O)O)NC(=O)[C@H](CC(=O)O)NC(=O)[C@H](CC(C)C)NC(=O)[C@H](CC(C)C)NC(=O)[C@H](CCCNC(=N)N)NC(=O)[C@H](CCSC)NC(=O)[C@@H](NC(=O)[C@H](CCC(=O)O)NC(=O)[C@H](Cc1ccc(O)cc1)NC(=O)[C@@H](NC(=O)[C@H](CCCCN)NC(=O)[C@H](CCC(N)=O)NC(=O)[C@H](CC(C)C)NC(=O)[C@@H](NC(=O)[C@H](Cc1c[nH]c2ccccc12)NC(=O)[C@H](CCC(=O)O)NC(=O)[C@H](CCCCN)NC(=O)[C@@H](N)CC(=O)O)[C@@H](C)CC)[C@@H](C)CC)[C@@H](C)CC)C(C)C)C(=O)N[C@@H](Cc1ccc(O)cc1)C(=O)N[C@@H](CCC(=O)O)C(=O)N[C@@H](Cc1ccccc1)C(=O)N[C@@H](CCSC)C(=O)N[C@@H](CCCCN)C(=O)N[C@@H](CCCCN)C(=O)NCC(=O)O` [Compound 102] registered an IC50 under setting [1] of 5.96 nM.
On the same count and under the same terms, under `CC[C@H](C)[C@H](NC(=O)[C@H](CC(C)C)NC(=O)[C@H](CC(=O)O)NC(=O)[C@H](CO)NC(=O)[C@@H](NC(=O)[C@H](CCCNC(=N)N)NC(=O)[C@H](CCSC)NC(=O)[C@H](CO)NC(=O)[C@H](C)NC(=O)[C@H](CCC(=O)O)NC(=O)[C@H](C)NC(=O)[C@H](Cc1c[nH]cn1)NC(=O)CNC(=O)[C@H](CC(C)C)NC(=O)[C@H](CCC(=O)O)NC(=O)[C@H](CC(=O)O)NC(=O)[C@H](CC(C)C)NC(=O)[C@H](CC(C)C)NC(=O)[C@H](CCCNC(=N)N)NC(=O)[C@H](CCSC)NC(=O)[C@@H](NC(=O)[C@H](CCC(=O)O)NC(=O)[C@H](Cc1ccc(O)cc1)NC(=O)[C@@H](NC(=O)[C@H](CCCCN)NC(=O)[C@H](CCC(N)=O)NC(=O)[C@H](CC(C)C)NC(=O)[C@@H](NC(=O)[C@H](Cc1c[nH]c2ccccc12)NC(=O)[C@H](CCC(=O)O)NC(=O)[C@H](CCCCN)NC(=O)[C@H](CC(=O)O)NC(C)=O)[C@@H](C)CC)[C@@H](C)CC)[C@@H](C)CC)C(C)C)C(=O)N[C@@H](Cc1ccc(O)cc1)C(=O)N[C@@H](CCC(=O)O)C(=O)N[C@@H](Cc1ccccc1)C(=O)N[C@@H](CCSC)C(=O)N[C@@H](CCCCN)C(=O)N[C@@H](CCCCN)C(=O)N[C@@H](CC(=O)O)C(=O)N[C@H]1CSSC[C@@H](C(=O)N[C@H](C(=O)O)[C@@H](C)O)NC(=O)[C@H](Cc2c[nH]c3ccccc23)NC(=O)[C@H](C(C)C)NC(=O)[C@H](CC(C)C)NC(=O)[C@H](CCC(=O)O)NC(=O)CNC(=O)[C@H](CC(C)C)NC(=O)[C@H](Cc2c[nH]cn2)NC(=O)[C@H](Cc2c[nH]c3ccccc23)NC(=O)[C@H](C)NC1=O` [Compound 114] stands 40.7 nM.
With `CC[C@H](C)[C@H](NC(=O)[C@H](CCCCN)NC(=O)[C@H](CCC(N)=O)NC(C)=O)C(=O)N[C@@H](Cc1ccc(O)cc1)C(=O)N[C@@H](CCC(=O)O)C(=O)N[C@H](C(=O)N[C@H]1CSSC[C@@H](C(=O)N[C@@H](CO)C(=O)N[C@@H](CC(=O)O)C(=O)N[C@@H](CC(C)C)C(=O)N[C@H](C(=O)N[C@@H](Cc2ccc(O)cc2)C(=O)N[C@@H](CCC(=O)O)C(=O)N[C@@H](Cc2ccccc2)C(=O)N[C@@H](CCSC)C(=O)N[C@@H](CCCCN)C(=O)N[C@@H](CCCCN)C(=O)NCC(=O)O)[C@@H](C)CC)NC(=O)[C@H](CCCNC(=N)N)NC(=O)[C@H](CCSC)NC(=O)[C@H](CO)NC(=O)[C@H](C)NC(=O)[C@H](CCC(=O)O)NC(=O)[C@H](C)NC(=O)[C@H](Cc2cnc[nH]2)NC(=O)CNC(=O)[C@H](CC(C)C)NC(=O)[C@H](CCC(=O)O)NC(=O)[C@H](CC(=O)O)NC(=O)[C@H](CC(C)C)NC(=O)[C@H](CC(C)C)NC(=O)[C@H](CCCNC(=N)N)NC1=O)[C@@H](C)CC` [Compound 132] (Ac-QKIYEICRLLDELGHAEASMRCSDLIYEFMKKG-OH; disulfide 7-22), under “read-out: IC50 Wild Type, Wild Type Spike”, the IC50 came out at 5830 nM.
Molecule `CC[C@H](C)[C@H](NC(=O)[C@H](CCCCN)NC(=O)[C@H](CCC(N)=O)NC(C)=O)C(=O)N[C@@H](Cc1ccc(O)cc1)C(=O)N[C@@H](CCC(=O)O)C(=O)N[C@H](C(=O)N[C@H]1CSSC[C@@H](C(=O)N[C@@H](CO)C(=O)N[C@@H](CC(=O)O)C(=O)N[C@@H](CC(C)C)C(=O)N[C@H](C(=O)N[C@@H](Cc2ccc(O)cc2)C(=O)N[C@@H](CCC(=O)O)C(=O)N[C@@H](Cc2ccccc2)C(=O)N[C@@H](CCSC)C(=O)N[C@@H](CCCCN)C(=O)N[C@@H](CCCCN)C(=O)NCC(=O)O)[C@@H](C)CC)NC(=O)[C@H](CCCNC(=N)N)NC(=O)[C@H](CCSC)NC(=O)[C@H](CO)NC(=O)[C@H](C)NC(=O)[C@H](CCC(=O)O)NC(=O)[C@H](C)NC(=O)[C@H](Cc2cnc[nH]2)NC(=O)CNC(=O)[C@H](CC(C)C)NC(=O)[C@H](CCC(=O)O)NC(=O)[C@H](CC(=O)O)NC(=O)[C@H](CC(C)C)NC(=O)[C@H](CC(C)C)NC(=O)[C@H](CCCNC(=N)N)NC1=O)[C@@H](C)CC` [Compound 133] (Ac-QKIYEICRLLDELGHAEASMRCSDLIYEFMKKG-OH; disulfide 7-22) came in with an IC50 under setting [1] of 1530 nM.
The same measure, in the same setting: under `CC[C@H](C)C(N)C(=O)N[C@@H](CC(C)C)C(=O)N[C@@H](CCC(N)=O)C(=O)N[C@@H](CCCCN)C(=O)N[C@H](C(=O)N[C@@H](Cc1ccc(O)cc1)C(=O)N[C@@H](CCC(=O)O)C(=O)N[C@H](C(=O)N[C@H]1CSSC[C@@H](C(=O)N[C@@H](CO)C(=O)N[C@@H](CC(=O)O)C(=O)N[C@@H](CC(C)C)C(=O)N[C@H](C(=O)N[C@@H](Cc2ccc(O)cc2)C(=O)N[C@@H](CCC(=O)O)C(=O)N[C@@H](Cc2ccccc2)C(=O)N[C@@H](CCSC)C(=O)N[C@@H](CCCCN)C(=O)N[C@@H](CCCCN)C(=O)NCC(=O)O)[C@@H](C)CC)NC(=O)[C@H](CCCNC(=N)N)NC(=O)[C@H](CCSC)NC(=O)[C@H](CO)NC(=O)[C@H](C)NC(=O)[C@H](CCC(=O)O)NC(=O)[C@H](C)NC(=O)[C@H](Cc2cnc[nH]2)NC(=O)CNC(=O)[C@H](CC(C)C)NC(=O)[C@H](CCC(=O)O)NC(=O)[C@H](CC(=O)O)NC(=O)[C@H](CC(C)C)NC(=O)[C@H](CC(C)C)NC(=O)[C@H](CCCNC(=N)N)NC1=O)[C@@H](C)CC)[C@@H](C)CC` (stereo partly drawn) [Compound 134] (H-[ξIle]LQKIYEICRLLDELGHAEASMRCSDLIYEFMKKG-OH; disulfide 9-24) stands 12.2 nM.
Take `CC[C@H](C)[C@H](NC(C)=O)C(=O)N[C@@H](CC(C)C)C(=O)N[C@@H](CCC(N)=O)C(=O)N[C@@H](CCCCN)C(=O)N[C@H](C(=O)N[C@@H](Cc1ccc(O)cc1)C(=O)N[C@@H](CCC(=O)O)C(=O)N[C@H](C(=O)N[C@H]1CSSC[C@@H](C(=O)N[C@@H](CO)C(=O)N[C@@H](CC(=O)O)C(=O)N[C@@H](CC(C)C)C(=O)N[C@H](C(=O)N[C@@H](Cc2ccc(O)cc2)C(=O)N[C@@H](CCC(=O)O)C(=O)N[C@@H](Cc2ccccc2)C(=O)N[C@@H](CCSC)C(=O)N[C@@H](CCCCN)C(=O)N[C@@H](CCCCN)C(=O)NCC(=O)O)[C@@H](C)CC)NC(=O)[C@H](CCCNC(=N)N)NC(=O)[C@H](CCSC)NC(=O)[C@H](CO)NC(=O)[C@H](C)NC(=O)[C@H](CCC(=O)O)NC(=O)[C@H](C)NC(=O)[C@H](Cc2cnc[nH]2)NC(=O)CNC(=O)[C@H](CC(C)C)NC(=O)[C@H](CCC(=O)O)NC(=O)[C@H](CC(=O)O)NC(=O)[C@H](CC(C)C)NC(=O)[C@H](CC(C)C)NC(=O)[C@H](CCCNC(=N)N)NC1=O)[C@@H](C)CC)[C@@H](C)CC` [Compound 135] (Ac-ILQKIYEICRLLDELGHAEASMRCSDLIYEFMKKG-OH; disulfide 9-24): the concentration for half-maximal inhibition (IC50) under setting [1] was 12.2 nM.
